Assays:
EGFR WT = EGFR WT (Homo sapiens (Human), UniProt P00533); assay: KinaseSeeker rabbit reticulocyte lysate competition binding assay (IC50)
Description: (§3) Luminescence readout translates into a highly sensitive and robust assay with low background and minimal interference from test compounds.
(§4) 10 mM stock solutions of test compounds were serially diluted in DMSO to make assay stocks. Prior to initiating IC50 determinations, the test compounds were evaluated for false positive against split-luciferase.
(§5) For kinase assays, Cfluc-kinase was translated along with Fos-Nfluc using a cell-free system (rabbit reticulocyte lysate) at 30° C. for 90 min. 24 uL aliquot of this lysate containing either 1 uL of DMSO (for no-inhibitor control) or compound solution in DMSO was incubated for 30 minutes at room temperature followed by 1 hour in presence of a kinase specific probe. 80 uL of luciferin assay reagent was added to each solution and luminescence was immediately measured on a luminometer.
(§6) The % Activity was plotted against compound concentration and the IC50 was determined for each compound using a 7-point curve (Jester, B. W.; et. al. J. Am. Chem. Soc. 2010, 132, 11727-11735. Jester, B. W.; et. al. J. Med. Chem. 2012, 55, 1526-1537).

kinase [1] = target: kinase (Homo sapiens, UniProt Q15303); assay: Radioisotope filter binding assay (33P-ATP kinase activity, IC50); assay type: biochemical; conditions: HER 4, read-out: IC50 Activity level HER 4
Description: (§1) Radioisotope Filter Binding Assay: In this assay format, it directly detects the true product without the use of modified substrates or coupling enzymes (Uitdehaag, J. C. et al. Br. J. Pharmacol. 2012, 166, 858-876; Hastie, C. J. et al. Nat. Protoc. 2006, 1, 968-971) according to equation 1.
(§2) The protocol calls for test compound of the invention to be incubated with kinase, substrate, cofactors, and radio-isotope-labeled ATP (^33P-gamma-ATP). The reaction mixtures are then spotted onto filter papers which bind the radioisotope labeled catalytic product. Unreacted phosphate is removed via washing. The reagents used include base reaction buffer; 20 mM Hepes (pH 7.5), 10 mM MgCl2, 1 mM EGTA, 0.02% Brij35, 0.02 mg/ml BSA, 0.1 mM Na3VO4, 2 mM DTT, 1% DMSO. The reaction procedure include the following steps: (1) prepare indicated substrate in freshly prepared base reaction buffer, (2) deliver any required cofactors to the substrate solution above, (3) deliver indicated kinase into the substrate solution and gently mix, (4) deliver compounds in DMSO into the kinase reaction mixture by Acoustic technology (Echo550; nanoliter range), incubate for 20 minutes at room temperature, (5) deliver ^33P-ATP (specific activity 10 μCi/μL) into the reaction mixture to initiate the reaction, (6) incubate kinase reaction for 2 hours at room temperature, (7) reactions are spotted onto P81 ion exchange paper, (8) detect kinase activity by filter-binding method.

EGFR (L858R) [2] = target: T1, EGFR (L858R) (Homo sapiens (Human), UniProt P00533, L858R); assay: KinaseSeeker rabbit reticulocyte lysate competition binding assay (IC50)
Description: as §3, §4, §5, §6

EGFR S752-I759del = EGFR S752-I759del (Homo sapiens (Human), UniProt P00533, DEL752-759); assay: KINOMEscan competition binding assay (Kd); conditions: KINOMEscan binding constant; read-out: Kd Activity Level (EGFR S752-I759del)
Description: (§7) The assay is performed by combining three components: DNA-tagged kinase; immobilized ligand; and a test compound. The ability of the test compound to compete with the immobilized ligand is measured via quantitative PCR of the DNA tag.
(§8) For most assays, kinase-tagged T7 phage strains were prepared in an E. coli host derived from the BL21 strain. E. coli were grown to log-phase and infected with T7 phage and incubated with shaking at 32° C. until lysis. The lysates were centrifuged and filtered to remove cell debris. The remaining kinases were produced in HEK-293 cells and subsequently tagged with DNA for qPCR detection. Streptavidin-coated magnetic beads were treated with biotinylated small molecule ligands for 30 minutes at room temperature to generate affinity resins for kinase assays. The liganded beads were blocked with excess biotin and washed with blocking buffer (SeaBlock (Pierce), 1% BSA, 0.05% Tween 20, 1 mM DTT) to remove unbound ligand and to reduce nonspecific binding. […] All reactions were performed in polystyrene 96-well plates in a final volume of 0.135 ml. […] The kinase concentration in the eluates was measured by qPCR.

HER2 = HER2 (Homo sapiens (Human), UniProt P04626); assay: KinaseSeeker rabbit reticulocyte lysate competition binding assay (IC50)
Description: as §3, §4, §5, §6

EGFR E746-A750del = EGFR E746-A750del (Homo sapiens (Human), UniProt P00533, DEL746-750); assay: KINOMEscan competition binding assay (Kd); conditions: KINOMEscan binding constant; read-out: Kd Activity Level (EGFR E746-A750del)
Description: as §7, §8

[3] = target: various mutant EGF receptors (Homo sapiens, UniProt P00533, G719C); assay: KINOMEscan competition binding assay (Kd), Example 40 in various mutant EGF receptors (Table 17)
Description: as §7, §8

[4] = target: various mutant EGF receptors (Homo sapiens, UniProt P00533, G719S); assay: as above
Description: as §7, §8

[5] = target: various mutant EGF receptors (Homo sapiens, UniProt P00533, DEL747-752/P753S); assay: as above
Description: as §7, §8

[6] = target: various mutant EGF receptors (Homo sapiens, UniProt P00533, L861Q); assay: as above
Description: as §7, §8

[7] = target: various mutant EGF receptors (Homo sapiens, UniProt P00533, DEL747-751/INS746S); assay: as above
Description: as §7, §8

[8] = target: various mutant EGF receptors (Homo sapiens, UniProt P00533, A750P/DEL747-749); assay: as above
Description: as §7, §8

kinase [9] = target: kinase (Homo sapiens, UniProt P00533, L858R); assay: Radioisotope filter binding assay (33P-ATP kinase activity, IC50); assay type: biochemical; conditions: EGFR L858R, read-out: IC50 Activity level EGFR L858R
Description: as §1, §2

kinase [10] = target: kinase (Homo sapiens, UniProt P00533); assay: as above; assay type: biochemical; conditions: EGFR WT, read-out: IC50 Activity level EGFR WT
Description: as §1, §2

kinase [11] = target: kinase (Homo sapiens, UniProt P00533, DEL746-750); assay: as above; assay type: biochemical; conditions: EGFR E746-A750del, read-out: IC50 Activity level EGFR E746-A750del
Description: as §1, §2

EGFR WT (wild type EGFR) = EGFR WT (wild type EGFR) (Homo sapiens (Human), UniProt P00533); assay: KINOMEscan competition binding assay (Kd); conditions: read-out: Kd Activity Level (EGFR WT)
Description: as §7, §8

EGFR L858R/T790M = EGFR L858R/T790M (Homo sapiens (Human), UniProt P00533, L858R/T790M); assay: KINOMEscan competition binding assay (Kd); conditions: KINOMEscan binding constant; read-out: Kd Activity Level (EGFR L858R/T790M)
Description: as §7, §8

EGFR (L858R) [12] = target: T1, EGFR (L858R); assay: KINOMEscan competition binding assay (Kd); conditions: read-out: Kd Activity Level (EGFR L858R)
Description: as §7, §8

kinase [13] = assay: Radioisotope filter binding assay (33P-ATP kinase activity, IC50); assay type: biochemical; conditions: HER 2, read-out: IC50 Activity level HER 2
Description: as §1, §2

Chain of EGFR L858R/T790M (P00533 25-1210 T790M/L858R): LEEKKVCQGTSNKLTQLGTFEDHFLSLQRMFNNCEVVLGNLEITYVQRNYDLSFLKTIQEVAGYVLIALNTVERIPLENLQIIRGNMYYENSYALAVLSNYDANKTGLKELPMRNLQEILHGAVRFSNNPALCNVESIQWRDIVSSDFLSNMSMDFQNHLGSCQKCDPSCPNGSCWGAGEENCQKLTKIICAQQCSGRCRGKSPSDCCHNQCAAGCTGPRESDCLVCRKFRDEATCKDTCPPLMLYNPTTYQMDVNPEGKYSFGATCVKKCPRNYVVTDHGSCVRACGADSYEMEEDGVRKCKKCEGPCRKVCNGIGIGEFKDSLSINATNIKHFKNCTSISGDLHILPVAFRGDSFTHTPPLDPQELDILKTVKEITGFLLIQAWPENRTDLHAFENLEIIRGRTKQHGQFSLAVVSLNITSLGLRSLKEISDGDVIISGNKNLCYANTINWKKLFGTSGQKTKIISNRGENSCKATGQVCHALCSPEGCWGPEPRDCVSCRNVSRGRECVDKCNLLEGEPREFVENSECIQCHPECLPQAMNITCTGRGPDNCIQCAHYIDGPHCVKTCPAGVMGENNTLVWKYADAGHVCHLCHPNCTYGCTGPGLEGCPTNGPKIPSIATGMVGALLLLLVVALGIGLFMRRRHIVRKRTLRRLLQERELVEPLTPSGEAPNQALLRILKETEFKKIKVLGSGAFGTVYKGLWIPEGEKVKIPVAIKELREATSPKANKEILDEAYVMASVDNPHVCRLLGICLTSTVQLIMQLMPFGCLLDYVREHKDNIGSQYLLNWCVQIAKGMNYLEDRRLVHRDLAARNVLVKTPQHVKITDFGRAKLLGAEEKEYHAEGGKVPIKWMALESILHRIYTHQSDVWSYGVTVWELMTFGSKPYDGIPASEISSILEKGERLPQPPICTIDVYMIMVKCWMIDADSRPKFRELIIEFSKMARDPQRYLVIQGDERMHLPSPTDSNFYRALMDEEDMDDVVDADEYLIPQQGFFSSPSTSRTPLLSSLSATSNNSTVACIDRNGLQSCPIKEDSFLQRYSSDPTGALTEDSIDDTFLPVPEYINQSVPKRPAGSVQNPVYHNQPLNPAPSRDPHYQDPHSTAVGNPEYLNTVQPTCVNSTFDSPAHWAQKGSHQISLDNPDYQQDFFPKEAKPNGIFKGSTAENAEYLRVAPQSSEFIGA
Chain of kinase (Homo sapiens, UniProt P00533) (P00533 25-1210 limits assumed): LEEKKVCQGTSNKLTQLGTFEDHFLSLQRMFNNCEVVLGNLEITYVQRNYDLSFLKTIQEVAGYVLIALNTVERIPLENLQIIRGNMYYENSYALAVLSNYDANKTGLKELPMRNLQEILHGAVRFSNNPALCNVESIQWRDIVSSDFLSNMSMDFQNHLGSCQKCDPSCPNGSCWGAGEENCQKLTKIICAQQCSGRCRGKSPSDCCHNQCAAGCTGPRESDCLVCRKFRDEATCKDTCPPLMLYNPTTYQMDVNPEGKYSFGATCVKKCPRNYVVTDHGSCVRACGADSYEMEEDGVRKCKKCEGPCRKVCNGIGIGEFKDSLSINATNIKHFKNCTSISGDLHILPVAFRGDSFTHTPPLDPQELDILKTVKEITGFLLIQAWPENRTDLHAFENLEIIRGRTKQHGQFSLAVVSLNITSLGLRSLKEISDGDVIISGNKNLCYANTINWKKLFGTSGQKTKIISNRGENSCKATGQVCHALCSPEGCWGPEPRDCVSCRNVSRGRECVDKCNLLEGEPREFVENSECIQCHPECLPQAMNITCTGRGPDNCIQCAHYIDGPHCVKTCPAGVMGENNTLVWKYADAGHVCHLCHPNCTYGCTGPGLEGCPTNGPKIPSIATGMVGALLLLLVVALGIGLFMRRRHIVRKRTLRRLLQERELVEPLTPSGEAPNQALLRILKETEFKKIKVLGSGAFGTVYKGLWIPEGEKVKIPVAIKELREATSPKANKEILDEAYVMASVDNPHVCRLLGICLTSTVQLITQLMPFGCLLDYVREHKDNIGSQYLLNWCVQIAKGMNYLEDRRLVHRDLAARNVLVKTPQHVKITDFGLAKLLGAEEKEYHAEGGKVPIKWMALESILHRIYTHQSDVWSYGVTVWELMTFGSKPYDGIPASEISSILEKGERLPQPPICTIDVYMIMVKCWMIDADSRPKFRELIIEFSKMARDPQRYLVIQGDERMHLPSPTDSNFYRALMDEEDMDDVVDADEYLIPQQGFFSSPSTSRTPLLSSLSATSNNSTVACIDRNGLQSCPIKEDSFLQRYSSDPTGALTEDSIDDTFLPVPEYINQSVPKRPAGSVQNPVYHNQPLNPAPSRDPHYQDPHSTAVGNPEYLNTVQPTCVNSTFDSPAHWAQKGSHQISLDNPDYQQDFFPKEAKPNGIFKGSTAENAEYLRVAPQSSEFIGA
Chain of EGFR WT (wild type EGFR) (P00533 25-1210): as the sequence (P00533 25-1210 limits assumed) above
Chain of EGFR WT (P00533 25-1210): as the sequence (P00533 25-1210 limits assumed) above
Chain of EGFR S752-I759del (P00533 other isoform, or with tags, fused parts or gaps del 1-668/del 752-759/del 1012-1210 limits assumed): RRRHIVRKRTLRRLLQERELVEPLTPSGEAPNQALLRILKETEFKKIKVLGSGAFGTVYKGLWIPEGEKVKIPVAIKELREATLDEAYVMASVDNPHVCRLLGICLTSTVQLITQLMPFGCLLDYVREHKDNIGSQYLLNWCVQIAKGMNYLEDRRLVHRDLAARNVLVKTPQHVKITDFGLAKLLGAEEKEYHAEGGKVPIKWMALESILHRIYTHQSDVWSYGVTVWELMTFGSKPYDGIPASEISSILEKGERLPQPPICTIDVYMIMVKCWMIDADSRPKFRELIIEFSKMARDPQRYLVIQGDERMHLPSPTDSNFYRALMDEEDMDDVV

Row | Kd (EGFR S752-I759del) [nM] | IC50 (HER2) [nM] | Kd (EGFR E746-A750del) [nM] | Kd (EGFR WT (wild type EGFR)) [nM] | Kd (EGFR L858R/T790M) [nM] | Kd (EGFR (L858R) [12]) [nM] | SMILES | IC50 (EGFR WT) [nM] | IC50 (kinase [1]) [nM] | IC50 (EGFR (L858R) [2]) [nM] | Kd [3] [nM] | Kd [4] [nM] | Kd [5] [nM] | Kd [6] [nM] | Kd [7] [nM] | Kd [8] [nM] | IC50 (kinase [9]) [nM] | IC50 (kinase [10]) [nM] | IC50 (kinase [11]) [nM] | IC50 (kinase [13]) [nM]
1 |  |  |  |  |  |  | N#Cc1cnc2ccc(NC(=O)CC3CCSS3)cc2c1Nc1ccc(OCc2cccc(F)c2)c(Cl)c1 (stereo not shown) [Example 62, N-(4-((3-Chloro-4-((3-fluorobenzyl)oxy)phenyl)amino)-3-cyanoquinolin-6-yl)-2-(1,2-dithiolan-3-yl)acetamide] | 100 to 999 | 1 to 99 | 1 to 99 |  |  |  |  |  |  |  |  |  | 
2 |  |  |  |  |  |  | N#Cc1cnc2cc(OC[C@H](O)CO)c(NC(=O)CC3CSSC3)cc2c1Nc1ccc(OCc2cccc(F)c2)c(Cl)c1 [Example 90, (R)—N-(4-((3-Chloro-4-((3-fluorobenzyl)oxy)phenyl)amino)-3-cyano-7-(2,3-dihydroxypropoxy)quinolin-6-yl)-2-(1,2-dithiolan-4-yl)acetamide] | 100 to 999 | 1 to 99 | 1 to 99 |  |  |  |  |  |  | 100 to 999 | 1 to 99 | 1000 to 10000 | 
3 |  |  |  |  |  |  | N#Cc1cnc2cc(OC[C@H](O)CO)c(NC(=O)C3CSSC3)cc2c1Nc1ccc(OCc2cccc(F)c2)c(Cl)c1 [Example 95, (R)—N-(4-((3-Chloro-4-((3-fluorobenzyl)oxy)phenyl)amino)-3-cyano-7-(2,3-dihydroxypropoxy)quinolin-6-yl)-1,2-dithiolane-4-carboxamide] | 100 to 999 |  | 1 to 99 |  |  |  |  |  |  | 100 to 999 | 1 to 99 | 1000 to 10000 | 
4 | 1 to 99 | 100 to 999 | 1 to 99 | 1 to 99 | > 10000 | 1 to 99 | N#Cc1cnc2cc(OC[C@@H](O)CO)c(NC(=O)C[C@@H]3CCSS3)cc2c1Nc1ccc(OCc2cccc(F)c2)c(Cl)c1 [Example 85, N-(4-((3-Chloro-4-((3-fluorobenzyl)oxy)phenyl)amino)-3-cyano-7-((S)-2,3-dihydroxypropoxy)quinolin-6-yl)-2-(1,2-dithiolan-3R-yl)acetamide] | 100 to 999 |  | 1 to 99 |  |  |  |  |  |  |  |  |  | 
5 | 1 to 99 | 100 to 999 | 1 to 99 | 1 to 99 | > 10000 | 1 to 99 | N#Cc1cnc2cc(OC[C@@H](O)CO)c(NC(=O)C[C@H]3CCSS3)cc2c1Nc1ccc(OCc2cccc(F)c2)c(Cl)c1 [Example 86, N-(4-((3-Chloro-4-((3-fluorobenzyl)oxy)phenyl)amino)-3-cyano-7-((S)-2,3-dihydroxypropoxy)quinolin-6-yl)-2-(1,2-dithiolan-3S-yl)acetamide] | 100 to 999 |  | 1 to 99 |  |  |  |  |  |  |  |  |  | 
6 |  |  |  |  |  |  | N#Cc1cnc2ccc(NC(=O)C3CSSC3)cc2c1Nc1ccc(OCc2cccc(F)c2)c(Cl)c1 [Example 61, N-(4-((3-Chloro-4-((3-fluorobenzyl)oxy)phenyl)amino)-3-cyanoquinolin-6-yl)-1,2-dithiolane-4-carboxamide] |  | 100 to 999 |  |  |  |  |  |  |  |  |  |  | 
7 |  |  |  |  |  |  | N#Cc1cnc2cc(OC[C@@H](O)CO)c(NC(=O)C3CSSC3)cc2c1Nc1ccc(OCc2cccc(F)c2)c(Cl)c1 [Example 98, (S)—N-(4-((3-Chloro-4-((3-fluorobenzyl)oxy)phenyl)amino)-3-cyano-7-(2,3dihydroxypropoxy)quinolin-6-yl)-1,2-dithiolane-4-carboxamide] | 100 to 999 | 1 to 99 | 1 to 99 |  |  |  |  |  |  | 1 to 99 | 1 to 99 | 100 to 999 | 100 to 999
8 | 1 to 99 | 100 to 999 | 1 to 99 | 1 to 99 | > 10000 | 1 to 99 | CCOc1cc2ncc(C#N)c(Nc3ccc(OCc4cccc(F)c4)c(Cl)c3)c2cc1NC(=O)C1CSSC1 [Example 36, N-(4-((3-Chloro-4-((3-fluorobenzyl)oxy)phenyl)amino)-3-cyano-7-ethoxyquinolin-6-yl)-1,2-dithiolane-4-carboxamide] | 100 to 999 |  | 1 to 99 |  |  |  |  |  |  |  |  |  | 

Row | SMILES | Kd (EGFR S752-I759del) [nM] | IC50 (HER2) [nM] | Kd (EGFR E746-A750del) [nM] | Kd (EGFR WT (wild type EGFR)) [nM] | Kd (EGFR L858R/T790M) [nM] | Kd (EGFR (L858R) [12]) [nM] | IC50 (EGFR WT) [nM] | IC50 (kinase [1]) [nM] | IC50 (EGFR (L858R) [2]) [nM] | Kd [3] [nM] | Kd [4] [nM] | Kd [5] [nM] | Kd [6] [nM] | Kd [7] [nM] | Kd [8] [nM] | IC50 (kinase [9]) [nM] | IC50 (kinase [10]) [nM] | IC50 (kinase [11]) [nM] | IC50 (kinase [13]) [nM]
9 | CCOc1cc2ncc(C#N)c(Nc3ccc(OCc4cccc(F)c4)c(Cl)c3)c2cc1NC(=O)CC1CCSS1 (stereo not shown) [Example 40] | 1 to 99 | 100 to 999 | 1 to 99 |  |  |  | 100 to 999 |  | 1 to 99 | 1 to 99 | 1 to 99 | 1 to 99 | 1 to 99 | 1 to 99 | 1 to 99 |  |  |  | 
10 | N#Cc1cnc2cc(OC[C@@H](O)CO)c(NC(=O)CC3CSSC3)cc2c1Nc1ccc(OCc2cccc(F)c2)c(Cl)c1 [Example 92, (S)—N-(4-((3-Chloro-4-((3-fluorobenzyl)oxy)phenyl)amino)-3-cyano-7-(2,3-dihydroxypropoxy)quinolin-6-yl)-2-(1,2-dithiolan-4-yl)acetamide] | 1 to 99 | 100 to 999 | 1 to 99 |  |  |  | 100 to 999 | 1 to 99 | 1 to 99 |  |  |  |  |  |  | 100 to 999 | 1 to 99 | 1000 to 10000 | 100 to 999
